These results are taken from patent US20150056166A1, “FLAVONE DERIVATIVES AND THEIR USE” (Twincore GmbH, priority 2012, published 2015).

The subject of assay [1] is subgenomic JFH1 luciferase replicon. As to the kind of experiment: HCV RNA translation and replication, subgenomic luciferase replicon in Huh7-Lunet/CD81 cells. The conditions noted are these: up to a dose of 10 μM, 72 h post transfection. Type of assay: cell-based. On the procedure:
(A) Huh7-Lunet/CD81 cells were transfected with the subgenomic luciferase replicon depicted at the top. Drugs were added 4 h post transfection and the level of HCV RNA translation and RNA replication was quantified by luciferase assays 72 h post transfection. Mean values of three independent experiments each with quadruplicate measurements including the standard deviation are shown. (B) Cells were transfected with the Jc1 chimera depicted above and drugs were added 4 h later. HCV virus release in the presence or absence of given compounds was determined by quantification of intracellular and extracellular core protein levels using a core-specific ELISA. Mean values of three independent experiments with single measurements including the error range are given. (C) Huh7-Lunet/CD81 cells were inoculated with Luc-Jc1 reporter viruses prepared in the absence of drugs. […] Infectivity was determined 72 h later by luciferase assays and compared to DMSO-treated controls. […]
To characterize the antiviral effect of BJ486K, the impact of BJ486K on the steps of HCV RNA translation and replication was assessed. To this end, Huh7-Lunet/CD81 cells were transfected with a subgenomic JFH1 luciferase replicon and RNA replication was monitored 72 h later by luciferase assays. […]
In general terms: A replicon is a self-replicating genome or part of one, used to study replication in cells.

For the next assay, the system named is Jc1. Nature of the assay: HCV virus assembly/release, intra- and extracellular core protein after Jc1 RNA transfection. Type of assay: cell-based. The conditions noted are these: up to a dose of 20 μM, 48 h after transfection. On the procedure: (A) Huh7-Lunet/CD81 cells were transfected with the subgenomic luciferase replicon depicted at the top. Drugs were added 4 h post transfection and the level of HCV RNA translation and RNA replication was quantified by luciferase assays 72 h post transfection. Mean values of three independent experiments each with quadruplicate measurements including the standard deviation are shown. (B) Cells were transfected with the Jc1 chimera depicted above and drugs were added 4 h later. HCV virus release in the presence or absence of given compounds was determined by quantification of intracellular and extracellular core protein levels using a core-specific ELISA. Mean values of three independent experiments with single measurements including the error range are given. (C) Huh7-Lunet/CD81 cells were inoculated with Luc-Jc1 reporter viruses prepared in the absence of drugs. BJ486K was added to the cells only prior to inoculation (black), only during inoculation (grey) or selectively directly after inoculation (white) as schematically depicted at the top. Infectivity was determined 72 h later by luciferase assays and compared to DMSO-treated controls. Mean values of three independent experiments each with quadruplicate measurements including the standard deviation are shown.
Huh7-Lunet/CD81 cells were transfected with Jc1 RNA and seeded on a 6-well plate. Compounds were added 4 h later. At 48 h after transfection, cell culture supernatant was harvested and used for measuring the extracellular core amount. Cells were washed once with PBS, scraped and centrifuged for 5 min at 1000×g. Cell pellets were resuspended in 500 μl fresh culture fluid and subjected to three cycles of freeze and thaw using liquid nitrogen and a 37° C. thermo block. Samples were than centrifuged at 10,000×g for 10 min to remove cell debris and the core amount was measured (intracellular core protein) using the […] […]
To determine whether BJ486K affects virus assembly or release we transfected Huh7-Lunet/CD81 cells with Jc1 RNA and quantified intra- and extracellular levels of core protein 48 h after transfection (FIG. 2B).

The subject of another assay is H77c (GT1a). Nature of the assay: Luciferase infection assay, chimeric reporter virus H77c/1a/R2a in Huh7-Lunet/CD81 cells. It counts as cell-based, HCV. The conditions noted are these: Hepatitis C virus, Huh-7, 72 h.
Assay [2] concerns cell culture derived particles from genotype 1a, 1b, 2b, 3a, 4a, 5a and 6a. Nature of the assay: Genotype panel of chimeric reporter viruses, summary statement. Type of assay: cell-based, HCV. The following applies: Hepatitis C virus.
The next assay concerns ED43 (GT4a). Nature of the assay: Luciferase infection assay, chimeric reporter virus ED43/4a/R2a in Huh7-Lunet/CD81 cells. Type of assay: cell-based, HCV. The conditions noted are these: Hepatitis C virus, Huh-7, 72 h.
Another assay deals with JcR-2a virus particles. Nature of the assay: Antiviral activity against early steps of HCV cell entry, synchronized JcR-2a infection (FIG. 3). The conditions noted are these: Hepatitis C virus. It counts as cell-based. Here is the method:
FIG. 3: BJ486K inhibits cell entry post virus attachment. The design of the JcR-2a reporter virus construct is given at the top. Huh7-Lunet/CD81 cells were inoculated with concentrated JcR-2a particles at 4° C. for 60 minutes. Subsequently, unbound virus particles were washed away and cells were shifted to 37° C. to permit synchronized cell entry. According to the 8 experimental protocols depicted in the middle, various cell entry inhibitors including heparin (50 μg/ml), ITX5061 (10 μM), CD81-specific antibody JS-81 (2 μg/ml) and BJ486K (20 μM) were either present during inoculation (protocol 1) or were added at different time points after inoculation (protocols 2 to 8). In each case, inhibitor was present for 4 h (dashed line) and was then washed away. Efficiency of cell entry was determined 48 h post inoculation by determination of luciferase activity and is expressed relative to control infections conducted in the presence of solvent alone (DMSO). Mean values of three independent experiments each with quadruplicate measurements including the standard deviation are shown.
JcR-2a virus particles were incubated with Huh7-Lunet/CD81 cells seeded as described above for 1 h at 4° C. to synchronize cell entry. Various inhibitors including 50 μg/ml heparin (Sigma-Aldrich), CD81-specific antibody JS-81 (2 μg/ml; Becton Dickinson), ITX 5061 (10 μM) or BJ486K (20 μM), were added during virus inoculation (protocol 1) or at indicated time points after virus inoculation (protocol 2-8). After 4 h inhibitor treatment, medium was changed to fresh culture fluid without inhibitors and the cells were lysed 48 h after inoculation as described above. Efficiency of infection was determined by luciferase assay using a tube luminometer (Lumat LB9507, Berthold, Freiburg, Germany).
To resolve which step of HCV cell entry is inhibited by BJ486K, we assessed its antiviral activity when administered at different time points during the early phase of infection. To this end, Huh7-Lunet/CD81 cells were inoculated for one hour at 4° C. with a reporter virus prepared in the absence of drugs. […]

In the next assay the test system is FF-Jc1 reporter virus. As to the kind of experiment: HCV cell entry, FF-Jc1 reporter virus in Huh-7.5 cells (FIG. 9). Type of assay: cell-based. The following applies: Hepatitis C virus, Huh7.5. Here is the method: FIG. 9: Comparison of flavones 13, 14 and 15. Huh-7.5 cells were seeded in 12-well plates and infected for 4 h with FF-Jc1 reporter virus +/−inhibitor (ranging from 0-100 μM final concentration). 72 h after infection, the cells were lysed and the reporter activity measured. The mean values of 6 measurements are shown in the graph. Fluorine analogues of flavone 13, flavones 14 (BJ751/1) and 15 (BJ755-3 I), inhibit HCV cell entry with 8-10-fold increased effects compared to those of the flavone 13.

Structures are written as SMILES. Like-named read-outs stand apart in the source and are kept apart here.

A word on the IC50: it is the point on the concentration scale where inhibition reaches its midpoint. Low readings indicate greater potency in that assay, high ones weaker potency in that assay. In general, IC90 refers to the concentration needed for an effect of 90%. Read a high IC90 as weaker potency. The inhibition is the drop in the measured response relative to a control, in per cent. For orientation: EC50 means the concentration that produces a half-maximal response. As for `COc1ccc(-c2cc(=O)c3c(O)c(O)c(OC)cc3o2)cc1` [BJ486K, 5,6-Dihydroxy-7-methoxy-2-(4-methoxy-phenyl)-chromen-4-one], in assay [1], the “luciferase activity (HCV RNA translation and replication)” value is on record as “not changed”. For the same compound, in the assay on Jc1, the “intracellular and extracellular core protein levels” value is on record as “reduced neither intracellular nor extracellular core protein levels”. The IC50 in the assay with H77c (GT1a) was 2.46 µM; in assay [2] it was under 4.2 µM; in the assay on ED43 (GT4a), 0.74 µM. Besides, the IC90 came out at 11.6 µM in the assay with H77c (GT1a) and 1.78 µM in the assay with ED43 (GT4a). Moreover, the inhibition at 20 µM was about 80% in the assay on JcR-2a virus particles (20 min, read-out: inhibition of HCV infection) and over 90% in the assay on JcR-2a virus particles (read-out: inhibition of entry). The EC50 in the assay with FF-Jc1 reporter virus is about 2 µM.
